Measured values: patent publication US5635193A, “Stability of azadirachtin-containing solid” (Thermo Trilogy Corporation, priority 1995, dated 1997)

Columns and labels:
[1] = Storage stability at 55° C. of dried lot 14 solid with added water or ethanol (Example 3, Table 3); assay type: physicochemical; conditions: 55° C. for a short period such as 24 hours
Description: Three values are given in the tables for each azadirachtin level: The amount (in grams) of azadirachtin A is given before the slash. The amount of azadirachtin B (in grams) is given after the slash. The total azadirachtin amount is given in parentheses. Ka, Kb, and Kt refer to the first order decomposition rate constants (with units of 1/day) for azadirachtin A, azadirachtin B, and total azadirachtin, respectively.
Dry solid azadirachtin was obtained by drying a solid azadirachtin sample from Lot 14 (014) in an oven at 55° C. for 24 hours in an unsealed vessel until the volatile content of the solid was less than 0.5%. The dried sample was then split into 6 subsamples. One dry subsample (014D) was used without further treatment. A second subsample (014W1) received 1% by weight of H2 O. A third subsample (014W4) received 4% by weight H2 O. Subsamples 4, 5 and 6 received 1, 3, and 5% by weight of ethanol, respectively and were designated 014E1, 014E3, and 014E5. The subsamples were placed in multiple tightly sealed vials at 55° C. Individual vials were removed periodically to assay for azadirachtin.

[2] = system: various insect, mite, nematode, etc. orders; conditions: cited from earlier work

C/C=C(\C)C(=O)O[C@H]1C[C@@H](OC(C)=O)[C@@]2(C(=O)OC)CO[C@H]3[C@@H](O)[C@@](C)([C@]45O[C@@]4(C)[C@H]4C[C@@H]5O[C@@H]5OC=C[C@@]54O)[C@H]4[C@]1(CO[C@]4(O)C(=O)OC)[C@@H]32 [azadirachtin]
effect of heating upon azadirachtin stability [1]: little or no effect upon azadirachtin stability | biological activity (in words) [2]: feeding inhibition and growth disruption
